# Reference: US20220185793A1, “COMPOUNDS FOR THE TREATMENT OF ONCOVIRUS INDUCED CANCER AND METHODS OF USE THEREOF” (Cellestia Biotech AG, priority 2019, published 2022)
# Assays:
# [1] = test system: EBV positive human lymphoma HG-3 cells; assay: Alamar blue proliferation assay in HG-3 cells; assay type: cell-based; settings: 72 hours; for anti-proliferative effect on HG-3 cells (in words): Alamar blue, FIG. 1 and Table 1; for IC50: Homo sapiens, concentration range 0.01-10 μM, Alamar blue assay, read-out: Anti-proliferative IC50 values
# Experimental: (§1) One million human EBV positive lymphoma cell lines HG3 and LCL070903 (Rosén et al., 2012) were cultured in RPMI1640 media supplemented with 10% FCS. […] Following treatment cells were harvested and washed with 1× PBS. Total RNA was extracted as described below.
# (§2) Alamarblue® and PrestoBlue proliferation assays were performed to determine the growth kinetics of EBV inhibitor treated cells. Alamar blue® and PrestoBlue consists of a cell permeable substrate resazurin. In metabolically active and proliferating cells, resazurin is converted to resorufin due to an intrinsic reducing power of live cells and produces a red fluorescence. Therefore production of resorufin serves as an indicator of the viability of the cell population.
# (§3) Proliferation assays were performed by seeding 5000 cells/well in a 96 well plate. […] Each concentration was tested in 4 replicates. To determine the growth kinetics, 10 μl of Alamar blue® or PrestoBlue (Invitrogen) was added to each well and incubated for 4 hours. Readout was taken using Tecan F500 (Tecan) multiplate reader or Varioskan LUX (ThermoFisher) multiplate reader.
# In order to determine anti-cancer activity of compounds in oncoviral driven cells, an EBV infected human Chronic Lymphocytic Leukemia cell line HG-3 was used (Rosen et al., 2012). In brief, HG-3 cells were plated in a 96 well plate and treated with an increasing concentration of compounds.
# BMI1 (EBV target gene) [2] = assay: EBV target gene downregulation (qPCR) in HG-3 cells: BMI1; assay type: cell-based, human; settings: 48 hours; for inhibition at 10 µM: Homo sapiens, mRNA by qPCR, Table 5; for potency in downregulating EBV pathway (BMI1) compared with 6-(4-tert-butylphenoxy)pyridin-3-amine (in words): 10 μM, qRT-PCR, FIG. 4
# Experimental: EBV positive human B HG-3 cells were treated with 10 μM of the mentioned compounds for 48 hours. Following treatment, total RNA was extracted and mRNA expression analysed by qRT-PCR.
# (§4) One million human EBV positive lymphoma cell lines HG3 and LCL070903 (Rosén et al., 2012) were cultured in RPMI1640 media supplemented with 10% FCS. For RNA expression analysis cells were treated with compounds at 10 μM concentration and for proliferation assay cells were treated at a concentration range of 0.01-100 μM. Following treatment cells were harvested and washed with 1× PBS. Total RNA was extracted as described below.
# (§5) Total RNA was extracted from cells using TRIzol® extraction kit (Invitrogen). Briefly, 1×10^6 cells were washed with ice-cold 1× PBS and lysed in 1 ml of TRIzol® solution for 5 minutes at room temperature to dissociate nucleoprotein complexes. Lysed cells were then treated with 200 μl of chloroform and shaked vigorously for 15-30 seconds and incubated at room temperature for 2-3 minutes. The samples were centrifuged at 14000 rpm using Eppendorf table top centrifuge for 10 minutes at 4° C. Following centrifugation, upper aqueous phase was transferred to new eppendorf tubes. To precipitate total RNA 500 μl of […] was added to the separated aqueous phase and incubated at room temperature for 10 minutes. A RNA pellet was obtained by centrifuging the samples at 4° C. for 10 minutes. RNA pellet obtained was washed with 1 ml ice cold 75% ethanol and spun down at 14000 rpm at 4° C. RNA pellet was dried off of excess of ethanol and resuspended in 40 IA DPEC water.
# (§6) Total RNA extracted from the cell was used to synthesize cDNA by reverse transcription reaction. Reverse transcription was performed according to one of the two following protocols.
# (§7) In first protocol, SuperScript™ RT (Invitrogen) was used for reverse transcription reaction. RNA concentration was measured using NanoDrop®ND-1000 spectrophotometer (Witec AG) and 500 ng of total RNA was mixed with a 10 mM mix of dNTPs and 100 ng of random primers. The reaction mix was incubated at 65° C. for 5 minutes and quickly incubated on ice for 1 minute. Following incubation on ice, 5× first strand buffer and 0.1M DTT were added and mix was incubated for 2 minutes at 25° C. To start the reverse transcription reaction, 200U of SuperScrip™ II RT was added to the reaction mix and incubated at 42° C. for 50 minutes. The reaction was stopped by incubating the reaction mix at 75° C. for 15 minutes.
# (§8) In second protocol, reverse transcription was performed using PrimeScript RT Master Mix (Takara). RNA concentration was measured using NanoDrop®ND-1000 spectrophotometer (Witec AG) and 1 μg of total RNA was mixed with 4 μL 5X PrimeScript RT Master Mix in a total reaction volume of 20 μL. The reaction mix was incubated at 37° C. for 15 minutes followed by heat inactivation at 85° C. for 5 seconds.
# (§9) QRT-PCR was carried out using 7900 HT Fast Real-Time PCR system (Applied Biosystems) or QuantStudio 3 system (ThermoFisher). Briefly, 12.5 ng of template cDNA was used with a primer concentration of 0.5 μM each and lx SYBR Green dye in a final volume of 10 μL in a 96 well or 384 well plate format.
# (§10) Upon infection of human cells, EBV is known to induce cancerous transformation of cells via upregulation of host as well as viral genes (e.g LMP1, EBNA2, BATF1, BMI1 and CD21). To determine the ability of compounds to downregulate EBV driven gene expression, HG-3 and LCL070903 cells were treated with selected compounds and percentage inhibition of EBV target genes was determined by quantitative PCR. As shown in Table 5 and Table 6, compounds down regulate EBV target genes such as BMI1 in HG-3 and LCL070903 cells, respectively (FIGS. 3 and 4).
# [3] = test system: EBV positive human B HG-3 cells; assay: PrestoBlue proliferation assay in HG-3 cells; assay type: cell-based; settings: 72 hours; for anti-proliferative effect on HG-3 cells (in words): PrestoBlue, FIG. 2 and Table 4; for IC50: Homo sapiens, concentration range 0.03-100 μM, PrestoBlue assay, read-out: Anti-proliferative IC50 values (μM) in HG-3 cells
# Experimental: as §1, §2, §3
# In brief, HG-3 cells were plated in a 96 well plate and treated with an increasing concentration of compounds.
# EBNA2 [4] = assay: EBV target gene downregulation (qPCR) in LCL070903 cells: EBNA2; assay type: cell-based; settings: Homo sapiens, mRNA by qPCR, Table 6
# Experimental: as §4, §5, §6, §7, §8, §9, §10
# BMI1 (EBV target gene) [5] = assay: EBV target gene downregulation (qPCR) in LCL070903 cells: BMI1; assay type: cell-based, human; settings: 48 hours; for potency in downregulating EBV pathway (BMI1) compared with 6-(4-tert-butylphenoxy)pyridin-3-amine (in words): 10 μM, qRT-PCR, FIG. 3; for inhibition at 10 µM: Homo sapiens, mRNA by qPCR, Table 6
# Experimental: EBV positive human B LCL070903 cells were treated with 10 μM of the mentioned compounds for 48 hours. Following treatment, total RNA was extracted and mRNA expression analysed by qRT-PCR.
# as §4, §5, §6, §7, §8, §9, §10
# NOTCH target gene HES1 = NOTCH target gene HES1 downregulation in RPMI 8402 cells; assay type: cell-based, human; parameters: Percentage inhibition of NOTCH target gene HES1: concentration or dose not given beside the values; settings: RPMI 8402 cells (NOTCH1 positive, EBV negative)
# Experimental: as §5, §6, §9
# (§11) To determine the ability of compounds to downregulate EBV driven gene expression, HG-3 cells were treated with selected compounds and percentage inhibition of EBV target genes was determined by quantitative PCR. […] To further determine the anti-oncoviral specificity of compounds, these compounds were tested for their ability to downregulate a NOTCH target gene HES1 in a NOTCH1 positive (EBV negative) human leukemic cell line RPMI8402.
# EBNA2 [6] = assay: EBV target gene downregulation (qPCR) in HG-3 cells: EBNA2; assay type: cell-based; settings: Homo sapiens, mRNA by qPCR, Table 5
# Experimental: as §4, §5, §6, §7, §8, §9, §11, §10
IC50 [1] [µM],SMILES,anti-proliferative effect on HG-3 cells (in words) [1],inhibition at 10 µM (BMI1 (EBV target gene) [2]) [%],IC50 [3] [µM],potency in downregulating EBV pathway (BMI1) compared with 6-(4-tert-butylphenoxy)pyridin-3-amine (in words) (BMI1 (EBV target gene) [5]),inhibition at 10 µM (BMI1 (EBV target gene) [5]) [%],potency in downregulating EBV pathway (BMI1) compared with 6-(4-tert-butylphenoxy)pyridin-3-amine (in words) (BMI1 (EBV target gene) [2]),other results
8,"CC(C)(C)c1ccc(Oc2ccc(NCC#N)cn2)cc1 [Example 6, 2-((6-(4-(tert-Butyl)phenoxy)pyridin-3-yl)amino)acetonitrile]",demonstrate anti-proliferative effect,,,,,,
,"c1ccc(-c2ccc(Oc3ccc(NCc4cccnc4)cn3)cc2)cc1 [Example 20, 6-([1,1r-Biphenyl]-4-yloxy)-N-(pyridin-3-ylmethyl)pyridin-3-amine]",,35,0.3,enhanced potency,44,,anti-proliferative effect on HG-3 cells (in words) [3]: demonstrate anti-proliferative effect; inhibition at 10 µM (EBNA2 [4]): 27%
7.1,"CC(C)(C)c1ccc(Oc2ccc(NCc3nn[nH]n3)cn2)cc1 [Example 7, N-((2H-Tetrazol-5-yl)methyl)-6-(4-(tert-butyl)phenoxy)pyridin-3-amine]",demonstrate anti-proliferative effect,,,,,,
,"CC(C)(C)c1ccc(Oc2ccc(NCc3cccnc3)cc2F)cc1 [Example 18, 4-(4-(tert-Butyl)phenoxy)-3-fluoro-N-(pyridin-3-ylmethyl)aniline]",,10,,enhanced potency,24,enhanced potency,
,"Fc1ccc(-c2ccc(Cc3ccc(NCc4cccnc4)cc3)cc2)cc1 [Example 32, 4-((4′-Fluoro-[1,1′-biphenyl]-4-yl)methyl)-N-(pyridin-3-ylmethyl)aniline]",,13,,enhanced potency,45,enhanced potency,
,"Fc1cc(NCc2cccnc2)ccc1Oc1ccc(-c2cccnc2)cc1 [Example 26, 3-Fluoro-4-(4-(pyridin-3-yl)phenoxy)-N-(pyridin-3-ylmethyl)aniline]",,11,,enhanced potency,53,enhanced potency,
6.3,"CC(C)(C)c1ccc(Oc2ccc(NCc3nnc(N)o3)cn2)cc1 [Example 9, 5-(((6-(4-(tert-Butyl)phenoxy)pyridin-3-yl)amino)methyl)-1,3,4-oxadiazol-2-amine]",demonstrate anti-proliferative effect,,,,,,
> 10,"CC(C)(C)c1ccc(Oc2ccc(N)cn2)cc1 [6-(4-tert-Butylphenoxy)pyridin-3-amine, reference compound]",,< 0,> 10,,< 0,,Percentage inhibition of NOTCH target gene HES1 (NOTCH target gene HES1): 80%; downregulation of NOTCH target gene HES1 (in words) (NOTCH target gene HES1): effectively downregulates HES1
,"Fc1cc(NCc2cccnc2)ccc1Oc1ccc(-c2ccccn2)cc1 [Example 25, 3-Fluoro-4-(4-(pyridin-2-yl)phenoxy)-N-(pyridin-3-ylmethyl)aniline]",,19,6.7,enhanced potency,46,enhanced potency,inhibition at 10 µM (EBNA2 [6]): 1%; anti-proliferative effect on HG-3 cells (in words) [3]: demonstrate anti-proliferative effect
7.9,"CC(C)(C)c1ccc(Oc2ccc(NCc3nnco3)cn2)cc1 [Example 8, N-((1,3,4-Oxadiazol-2-yl)methyl)-6-(4-(tert-butyl)phenoxy)pyridin-3-amine]",demonstrate anti-proliferative effect,,,,,,
,"Fc1ccc(-c2ccc(Oc3ccc(NCc4cccnc4)cn3)cc2)cc1 [Example 24, 6-((4′-Fluoro-[1,1′-biphenyl]-4-yl)oxy)-N-(pyridin-3-ylmethyl)pyridin-3-amine]",,15,,enhanced potency,61,enhanced potency,inhibition at 10 µM (EBNA2 [6]): 7%
,"Cc1cc(Oc2ccc(-c3ccccc3)cc2)ncc1NCc1cccnc1 [Example 22, 6-([1,1′-Biphenyl]-4-yloxy)-4-methyl-N-(pyridin-3-ylmethyl)pyridin-3-amine]",,30,1.5,enhanced potency,18,enhanced potency,anti-proliferative effect on HG-3 cells (in words) [3]: demonstrate anti-proliferative effect
,"COC(c1ccc(NCc2cccnc2)cc1)c1ccc(-c2ccc(F)cc2)cc1 (stereo not drawn) [Example 31, 4-((4′-Fluoro-[1,1′-biphenyl]-4-yl)(methoxy)methyl)-N-(pyridin-3-ylmethyl)aniline]",,24,,enhanced potency,48,enhanced potency,
